The results in this text go back to patent US8088806B2 (Achillion Pharmaceuticals, Inc., priority 2005, dated 2012).

The subject of the first experiment is HCV replicon. The experiment is described as follows: Replicon based assay of HCV replication inhibition (NPT ELISA). The following applies: Hepatitis C virus, Huh-7, 72 h, Table I; Huh-7 HCV replicon-containing cells, three days; read-out: Activity. The class given is cell-based, Hepatitis C virus. In a few lines: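 NPT (neomycin phosphotransferase) content, proportional to replicon replication, quantified by capture ELISA on day four. Before that, replicon-bearing Huh-7 cells in G418-free screening medium were exposed three days at 37° C to compound, typically six doses from 10 to 0.03 micromolar, with equal DMSO across wells.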
On to `c1ccc(Oc2cccc(CCNc3nc(-c4cccnc4)cs3)c2)cc1` [compound 83, N-(3-phenoxyphenethyl)-4-(pyridin-3-yl)thiazol-2-amine], for which the EC50 was > 10000 nM.

In the case of `CCCCCOc1ccc(Nc2nc(-c3ccc(CC(=O)O)s3)cs2)cc1C(F)(F)F` [compound 200, 2-(5-(2-(3-(trifluoromethyl)-4-(pentyloxy)phenylamino)thiazol-4-yl)thiophen-2-yl)acetic acid], the EC50 was < 1000 nM.

Consider `O=C(Nc1ccc(OCc2ccccc2)cc1)c1nc(-c2cccnc2)cs1` [compound 114], for which the EC50 is > 10000 nM.

On to `CCCCCOc1ccc(Nc2nc(-c3cnccn3)cs2)cc1C(F)(F)F` [compound 156, N-(3-(trifluoromethyl)-4-(pentyloxy)phenyl)-4-(pyrazin-2-yl)thiazol-2-amine], for which the EC50 was < 1000 nM.

On to `CCCCCOc1ccc(N(C)c2nc(C(=O)O)cs2)cc1C(F)(F)F` [compound 158, 2-(N-(3-(trifluoromethyl)-4-(pentyloxy)phenyl)-N-methylamino)thiazole-4-carboxylic acid], for which the EC50 is > 10000 nM.

Turning to `COc1ccc(Nc2nc(-c3ccccc3)c(-c3ccccc3)s2)cc1` [compound 119, N-(4-methoxyphenyl)-4,5-diphenylthiazol-2-amine], the EC50 is < 1000 nM.

On to `COc1ccc(Nc2nc(-c3ccc(OCc4ccc(Br)cc4)cc3)cs2)cc1` [compound 122, 4-(4-(4-bromobenzyloxy)phenyl)-N-(4-methoxyphenyl)thiazol-2-amine], for which the EC50 was > 10000 nM.

Regarding `CCCCCOc1ccc(Nc2nc(CN3CCNC(=O)C3)cs2)cc1C(F)(F)F` [compound 216, 4-((2-(3-(trifluoromethyl)-4-(pentyloxy)phenylamino)thiazol-4-yl)methyl)piperazin-2-one], the EC50 was < 1000 nM.

`CCCCCOc1ccc(Nc2nc(-c3cccnc3)cs2)cc1C(F)(F)F` [compound 7, N-(3-(trifluorometbyl)-4-(pentyloxy)phenyl)-4-(pyridin-3-yl)thiazol-2-amine]: the EC50 is < 1000 nM.

The same experiment, now with this note: Hepatitis C virus, Huh-7, 72 h, Table III; Huh-7 HCV replicon-containing cells, three days; read-out: Activity.
On to `CCCCCCCCOc1ccc(Nc2nc(-c3cncnc3-c3ccccc3)cs2)cc1C(F)(F)F` [compound 702, N-(3-(trifluoromethyl)-4-(octyloxy)phenyl)-4-(4-phenylpyrimidin-5-yl)thiazol-2-amine], for which the EC50 was < 1000 nM.

Turning to `CCCC/C=C\CCOc1ccc(Nc2nc(-c3cccnc3)cs2)cc1C(F)(F)F` [compound 531, N-(4-((Z)-oct-3-enyloxy)-3-(trifluoromethyl)phenyl)-4-(pyridin-3-yl)thiazol-2-amine], the EC50 is < 1000 nM.

For the molecule `CCCCCCCCOc1ccc(Nc2nc(-c3cncc(C#N)c3)cs2)cc1C(F)(F)F` [compound 654, 5-(2-(3-(trifluoromethyl)-4-(octyloxy)phenylamino)thiazol-4-yl)pyridine-3-carbonitrile], the EC50 was < 1000 nM.

For `CCCCCCCCOc1ccc(Nc2nc(-c3ccc(-c4ccccn4)s3)cs2)cc1C(F)(F)F` [compound 588, N-(3-(trifluoromethyl)-4-(octyloxy)phenyl)-4-(5-(pyridin-2-yl)thiophen-2-yl)thiazol-2-amine], the EC50 was < 1000 nM.

As to `CCCCCOc1ccc(Nc2nc(Cc3ccc(Cl)cc3)cs2)cc1F` [compound 636, 4-(4-chlorobenzyl)-N-(3-fluoro-4-(pentyloxy)phenyl)thiazol-2-amine], the EC50 was > 10000 nM.

As to `CCCCCCCCOc1ccc(Nc2nc(-c3ccccn3)cs2)cc1C(F)(F)F` [compound 587, N-(3-(trifluoromethyl)-4-(octyloxy)phenyl)-4-(pyridin-2-yl)thiazol-2-amine], the EC50 was < 1000 nM.

Still in this experiment, the particulars now being: Hepatitis C virus, replicon based assay of HCV replication inhibition; Table II; read-out: Activity.
As to `CCCCCCCCOc1ccc(Nc2nc(CN3CCC(C(=O)OCC)CC3)cs2)cc1` [compound 319, ethyl 1-((2-(4-(octyloxy)phenylamino)thia-zol-4-yl)methyl)piperidine-4-carboxylate], the EC50 lay within 1000 to 10000 nM.

Consider `CCCCCOc1ccc(Nc2nc(CC)cs2)cc1C(F)(F)F` [compound 415, 4-ethyl-N-(3-(trifluoromethyl)-4-(pentyloxy)phenyl)thiazol-2-amine], for which the EC50 is < 1000 nM.

For the molecule `CCCCCCCOc1ccc(Nc2nc(-c3ccc(Cl)cc3)cs2)cc1` [compound 422, 4-(4-chlorophenyl)-N-(4-(heptyloxy)phenyl)thiazol-2-amine], the EC50 is < 1000 nM.

Turning to `CCCCCCCOc1ccc(Nc2nc(-c3sc(-c4cnccn4)nc3C)cs2)cc1` [compound 402], the EC50 was < 1000 nM.

Take `CCCCCCCOc1ccc(Nc2nc(-c3ccc(F)cc3)cs2)cc1` [compound 420, 4-(4-fluorophenyl)-N-(4-(heptyloxy)phenyl)thiazol-2-amine]: the EC50 is < 1000 nM.

`CCCCCCCCOc1ccc(Nc2nc(-c3cccnc3C)cs2)cc1` [compound 442, 4-(2-methylpyridin-3-yl)-N-(4-(octyloxy)phenyl)thiazol-2-amine]: the EC50 is < 1000 nM.

Regarding `CCCCCOc1ccc(Nc2nc(CN3CCC(C)CC3)cs2)cc1C(F)(F)F` [compound 231, 4-((4-methylpiperidin-1-yl)methyl)-N-(4-(pentyloxy)-3-(trifluoromethyl)phenyl)thia-zol-2-amine], the EC50 is < 1000 nM.

Consider `CCCCCCCOc1ccc(Nc2nc(-c3ccc(NC(C)=O)cc3)cs2)cc1` [compound 438, N-(4-(2-(4-(heptyloxy)phenylamino)thia-zol-4-yl)phenyl)acetamide], for which the EC50 is < 1000 nM.

Consider `CCCCCCOc1ccc(Nc2nc(-c3ccc(C)nc3)cs2)cc1` [compound 455, N-(4-(hexyloxy)phenyl)-4-(6-methylpyridin-3-yl)thiazol-2-amine], for which the EC50 was < 1000 nM.

For `Cc1ccc(-c2csc(Nc3ccc(OCCCC4CCCC4)c(C(F)(F)F)c3)n2)cn1` [compound 496, N-(4-(3-cyclopentylpropoxy)-3-(trifluoromethyl)phenyl)-4-(6-methylpyridin-3-yl)thiazol-2-amine], the EC50 is < 1000 nM.

As to `CCCCCOc1ccc(Nc2nc(CN3CCC(C(=O)O)CC3)cs2)cc1C(F)(F)F` [compound 274, 1-((2-(4-(pentyloxy)-3-(trifluoromethyl)phenyl-amino)thiazol-4-yl)methyl)piperidine-4-carboxylic acid], the EC50 is < 1000 nM.

Take `CCCCCOc1ccc(Nc2nc(-c3ccc(Br)nc3)cs2)cc1C(F)(F)F` [compound 459, 4-(6-bromopyridin-3-yl)-N-(3-(trifluoromethyl)-4-(pentyloxy)phenyl)thiazol-2-amine]: the EC50 is < 1000 nM.

For `CCCCCCCCOc1ccc(Nc2nc(CN3CCCC(C)C3)cs2)cc1` (centres unmarked) [compound 325, 4-((3-methylpiperidin-1-yl)methyl)-N-(4-(octyloxy)phenyl)thiazol-2-amine], the EC50 fell in the range of 1000 to 10000 nM.

Take `CCCCCCCCOc1ccc(Nc2nc(-c3cncnc3)cs2)cc1` [compound 507, N-(4-(octyloxy)phenyl)-4-(pyrimidin-5-yl)thiazol-2-amine]: the EC50 is < 1000 nM.

The experiment is the same for the next values; noted with them: Hepatitis C virus, replicon based assay of HCV replication inhibition; Table IV; read-out: Activity.
As for `FC(F)(F)c1cc(Nc2nc(-c3cccnc3)cs2)cc(C(F)(F)F)c1` [compound 874, N-(3,5-bis(trifluoromethyl)phenyl)-4-(pyridin-3-yl)thiazol-2-amine], the EC50 lay within 1000 to 10000 nM.

`Fc1cc(Nc2nc(-c3ccc(-c4csnn4)cc3)cs2)ccc1OCC1CCCCC1` [compound 726, 4-(4-(1,2,3-thiadiazol-4-yl)phenyl)-N-(4-(cyclohexylmethoxy)-3-fluorophenyl)thiazol-2-amine]: the EC50 fell in the range of 1000 to 10000 nM.

`Cc1sc(Nc2ccc(OCCCCc3ccccc3)c(C(F)(F)F)c2)nc1-c1cccnc1` [compound 838, N-(4-(4-phenylbutoxy)-3-(trifluoromethyl)phenyl)-5-methyl-4-(pyridin-3-yl)thiazol-2-amine]: the EC50 was < 1000 nM.

For `CCCCCCCCc1ccc(Nc2nc(-c3cnc(OC)nc3)cs2)cc1C(F)(F)F` [compound 826, N-(3-(trifluoromethyl)-4-octylphenyl)-4-(2-methoxypyrimidin-5-yl)thiazol-2-amine], the EC50 is < 1000 nM.

For the molecule `Cc1cc(C)c(Nc2nc(-c3cccnc3)cs2)c(C)c1` [compound 883, N-mesityl-4-(pyridin-3-yl)thiazol-2-amine], the EC50 is > 10000 nM.

As to `CCCCCCC#Cc1ccc(Nc2nc(-c3cccnc3)cs2)cc1C(F)(F)F` [compound 789, N-(3-(trifluoromethyl)-4-(oct-1-ynyl)phenyl)-4-(pyridin-3-yl)thiazol-2-amine], the EC50 is < 1000 nM.

For the molecule `CCC(C)(C)c1ccc(Oc2ccccc2)c(Nc2nc(-c3cccnc3)cs2)c1` [compound 902, N-(5-tert-pentyl-2-phenoxyphenyl)-4-(pyridin-3-yl)thiazol-2-amine], the EC50 is < 1000 nM.

As for `CCOC(=O)Cc1ccc(-c2csc(Nc3ccc(OCCN(CC)c4ccccc4)c(C(F)(F)F)c3)n2)s1` [compound 932], the EC50 fell in the range of 1000 to 10000 nM.

Consider `FC(F)(F)c1cc(Nc2nc(-c3cccnc3)cs2)ccc1OCCCCc1cccs1` [compound 799, N-(4-(4-(thiophen-2-yl)butoxy)-3-(trifluoromethyl)phenyl)-4-(pyridin-3-yl)thiazol-2-amine], for which the EC50 is < 1000 nM.

For `CCCCCCC=Cc1ccc(Nc2nc(-c3cccnc3)cs2)cc1C(F)(F)F` [compound 822, N-(3-(trifluoromethyl)-4-(oct-1-enyl)phenyl)-4-(pyridin-3-yl)thiazol-2-amine], the EC50 is < 1000 nM.

Turning to `Cc1ccc(Nc2nc(-c3cccnc3)cs2)cc1` [compound 884, 4-(pyridin-3-yl)-N-p-tolylthiazol-2-amine], the EC50 is > 10000 nM.

For `COc1ncc(-c2csc(Nc3ccc(OCCCc4ccccc4)c(C(F)(F)F)c3)n2)cn1` [compound 831, N-(4-(3-phenylpropoxy)-3-(trifluoromethyl)phenyl)-4-(2-methoxypyrimidin-5-yl)thiazol-2-amine], the EC50 was < 1000 nM.
